Laboratory results: publication PMC8887546, “Design and Synthesis of Brain Penetrant Glycopeptide Analogues of PACAP With Neuroprotective Potential for Traumatic Brain Injury and Parkinsonism” (Frontiers in drug discovery, 2022)

Tests used:
[1] = test system: Sprague Dawley rats, 6-OHDA lesion; assay: Striatal TH expression, semi-quantitative western analysis (study 2); type: in vivo, rat; conditions: more severe (40%) lesion, vs vehicle
Method: Rats were treated with 2LS98Lac or saline (vehicle) as outlined in the Schemes in Figures 9A,B via intraperitoneal (i.p.) injection (15 mg/kg). All animals were made hemi-parkinsonian with unilateral, striatal 6-hydroxydopamine (Sigma Aldrich, St. Louis, MO) injections. After surgery, behavioral assessments were done at 2- and 4-weeks post-surgery. 24 h after the last test animals were either euthanized and whole brains were harvested for future biochemical analysis or perfused and brains collected for immunohistochemistry and stereological assessment of tyrosine hydroxylase-positive (TH+) cells remaining in the SNc. In study 1: n = 16 each group were included, and all underwent the behavioral analysis: n = 16, and for the stereology in the SNc, n = 8 each group was used. In study 2: n = 23 each group were included. […] In the 2LS98Lac group, one video at 4 weeks was lost, reducing n = 22 in this specific analysis, and for the stereology, 2 brains were damaged during processing and could not be included in the stereology of the SNc, therefore […]. For biochemical subanalyses, n = 8 each group. For the microglial morphology subanalysis n = 7 each group.
FIGURE 9 | Evaluation of neuroprotection of the PACAP glycopeptide 2LS98Lac in rat Parkinson’s disease models. (A) Scheme for study 1, using a mild PD lesion. (B) Scheme for study 2, using a moderate PD lesion. […]

[2] = test system: Sprague Dawley rats, 6-OHDA lesion; assay: Unbiased stereology of TH-positive neurons in SNc (study 2); type: in vivo, rat; conditions: more severe (40%) lesion
Method: Rats were treated with 2LS98Lac or saline (vehicle) as outlined in the Schemes in Figures 9A,B via intraperitoneal (i.p.) injection (15 mg/kg). All animals were made hemi-parkinsonian with unilateral, striatal 6-hydroxydopamine (Sigma Aldrich, St. Louis, MO) injections. After surgery, behavioral assessments were done at 2- and 4-weeks post-surgery. 24 h after the last test animals were either euthanized and whole brains were harvested for future biochemical analysis or perfused and brains collected for immunohistochemistry and stereological assessment of tyrosine hydroxylase-positive (TH+) cells remaining in the SNc. In study 1: n = 16 each group were included, and all underwent the behavioral analysis: n = 16, and for the stereology in the SNc, n = 8 each group was used. In study 2: n = 23 each group were included. […]
Stereological probes were applied using a Zeiss Imager M2 microscope (Carl Zeiss, Jena, Germany) equipped with StereoInvestigator software (MBF Bioscience, VT, United States) according to previously published methods ([Corenblum et al., 2015]; [Anandhan et al., 2021]). Using the optical fractionator probe, cells were counted under the ×63 oil immersion objective by a blinded observer. TH+ cells were counted in sections 480 μm apart using a grid size of 170 × 100 μm and counting frame size of 75 × 75 μm. […]

## [2H]C([2H])([2H])C([2H])(C([2H])([2H])[2H])[C@]([2H])(NC(=O)[C@H](C)NC(=O)[C@H](C)NC(=O)[C@H](CC(C)C)NC(=O)[C@H](Cc1ccc(O)cc1)NC(=O)[C@H](CCCCN)NC(=O)[C@H](CCCCN)NC(=O)[C@@]([2H])(NC(=O)[C@H](C)NC(=O)[C@H](CC(C)C)NC(=O)[C@H](CCC(N)=O)NC(=O)[C@H](CCCCN)NC(=O)[C@H](CCCNC(=N)N)NC(=O)[C@H](Cc1ccc(O)cc1)NC(=O)[C@H](CCCNC(=N)N)NC(=O)[C@H](CO)NC(=O)[C@H](Cc1ccc(O)cc1)NC(=O)[C@H](CO)NC(=O)[C@H](CC(=O)O)NC(=O)[C@@H](NC(=O)[C@H](Cc1ccccc1)NC(=O)[C@@H](NC(=O)CNC(=O)[C@H](CC(=O)O)NC(=O)[C@H](CO)NC(=O)[C@@H](N)Cc1c[nH]cn1)[C@@H](C)CC)[C@@H](C)O)C([2H])(C([2H])([2H])[2H])C([2H])([2H])[2H])C(=O)N[C@@H](CC(C)C)C(=O)N[C@@H](CO[C@@H]1O[C@H](CO)[C@@H](O[C@@H]2O[C@H](CO)[C@H](O)[C@H](O)[C@H]2O)[C@H](O)[C@H]1O)C(N)=O [Compound 2LS98Lac]
[1]
  Striatal TH: no significant difference
[2]; not significant (p = 0.2208)
  Mean increase of nigral TH cells on the lesioned side vs vehicle: 850 cells
[2]; three injections 15 mg/kg i.p., mean, vehicle 8,391
  Nigral TH-cell count on the lesioned side: 9,244 cells
